{"source": "patent US20170252289A1", "about": "“Hydroponic Tiliacora Triandra and Use Thereof” (Avon Products, Inc., priority 2016, published 2017)", "key": {"[1]": {"test_system": "Human 3D skin EFT400FT tissues", "assay": "Stimulation of HA production in human 3D skin tissues (hyaluronic acid test kit on conditioned medium)", "assay_type": "cell-based", "details": "30 μl on apical surface, 8 hours per day for 3 days", "experimental": "Method: Human 3D skin EFT400FT (MatTek, MA, USA) tissues were cultured following manufacture's instruction. Tiliacora triandra extract (extracted from hydroponically grown plant using 20/80 (v/v) water/ethanol) was added directly to the culture medium from a stock solution of 10% (w/w) extract in water in an amount adequate to achieve a final concentration of 0.2% (w/w) in the culture medium. The culture medium (EFT-400-MM) with and without Tiliacora triandra extract was collected 24 hours after dosing and fresh medium with and without Tiliacora triandra extract was added. Conditioned media from 3-day collection were pooled and assayed for the levels of HA.\nHA production was measured using hyaluronic acid test kit (Corgenix, Inc. CO, USA). […] Add 100 μl Stopping Solution to stop the enzyme reaction and read the O.D. of each well at 450 nm. The amount of HA in the conditioned medium was calculated from this standard curve. […]\nThe same procedure of Example 4 was repeated using the skincare active glycolic acid, alone or in combination with hydroponic Tiliacora triandra extract, to investigate possible synergies between hydroponic Tiliacora triandra extract and glycolic acid. […] Glycolic acid was formulated into the base formula provided below in Table 3 in an amount calculated to provide a 0.5% (w/w) concentration of glycolic acid in the emulsion. […]"}, "HAS3 gene": {"test_system": "HAS3 gene", "assay": "Hyaluronic acid synthase (HAS) gene expression by qPCR in treated 3D skin tissue, HAS3", "assay_type": "cell-based, Human", "details": "treated 3D skin EFT400FT tissue, 18S house keeping gene", "experimental": "(§1) Total RNA was isolated from each treated 3D skin EFT400FT tissue using Trizol reagent (Thermo Fisher Scientific, MA). 1 μg of total RNA was used to generate cDNA using Supercript III first strand synthesis kit (Thermo Fisher Scientific, MA). Reverse transcriptase, Buffer, dNTP, Random primer, and RNase Inhibitor were diluted with the RNA according to the protocol from the manufacturer. 25 ng cDNA was used in 20 μl q-PCR reactions. Briefly, 10 μl of TaqMan Advanced Master Mix (Thermo Fisher Scientific, MA), 4 μl of H2O, 5 μl of cDNA, and 1 μl of either HAS primer (HAS2 Hs00193435_m1 and HAS3 Hs00193436_m1, Applied Biosystems) or 18S (Hs99999901_s1, Applied Biosystems) as a house keeping gene were mixed in a 96 well plate. The condition of qPCR was an incubation step of 95° C. for 20 seconds followed by 40 cycles of 95° C. for 3 seconds and 60° C. for 30 seconds. CT and RQ values were obtained from the software of applied Biosystems 7500 Fast Real Time PCR system. The results are shown below in Table 6, as percentage change of expression of hyaluronan synthase genes over control."}, "HAS2 gene": {"test_system": "HAS2 gene", "assay": "Hyaluronic acid synthase (HAS) gene expression by qPCR in treated 3D skin tissue, HAS2", "assay_type": "cell-based, Human", "details": "treated 3D skin EFT400FT tissue, 18S house keeping gene", "experimental": "as §1"}}, "data": [{"smiles": "O=C(O)CO", "note": "[Glycolic acid, glycolic acid]", "values": [{"measurement": "% change in HA level over the control", "setting": "[1]; Example 5, 0.5% (w/w) glycolic acid emulsion", "value": 25.21, "unit": "%"}, {"measurement": "HAS3 gene % change of expression over control", "setting": "HAS3 gene", "value": 101, "unit": "%"}, {"measurement": "HAS2 gene % change of expression over control", "setting": "HAS2 gene", "value": "No effect"}]}, {"smiles": "NC(=O)c1cccnc1", "note": "[Niacinamide, niacinamide]", "values": [{"measurement": "% change in HA level over the control", "setting": "[1]; Example 6, 5% (w/w) niacinamide emulsion", "value": 119.54, "unit": "%"}, {"measurement": "HAS3 gene % change of expression over control", "setting": "HAS3 gene", "value": 106, "unit": "%"}, {"measurement": "HAS2 gene % change of expression over control", "setting": "HAS2 gene", "value": "No effect"}]}]}
